Measurements: ChEMBL document CHEMBL1201862, “PubChem BioAssay data set” (2004)
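1) Cells in 96-well plates. 2) Compound, 48 h, 5 concentrations. 3) Linear interpolation between surrounding doses. 4) Unreached endpoint = highest concentration. GI50 is the concentration that inhibits growth by half.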 Calls of active or inactive are those of the source. Rule as the data show it: active = GI50 up to about 1.1 µM and inactive = higher.

How the values were obtained:
Test in all cases: NCI anticancer screen, dose series, 48 h
U-251 = tested on: U-251
NCI/ADR-RES = tested on: NCI/ADR-RES
CCRF-CEM = tested on: CCRF-CEM
SK-MEL-5 = tested on: SK-MEL-5
UACC-62 = tested on: UACC-62
HL-60 = tested on: HL-60
SK-OV-3 = tested on: SK-OV-3
RPMI-8226 = tested on: RPMI-8226
DU-145 = tested on: DU-145
OVCAR-3 = tested on: OVCAR-3
SF-268 = tested on: SF-268
SR = tested on: SR
OVCAR-5 = tested on: OVCAR-5
TK-10 = tested on: TK-10
NCI-H460 = tested on: NCI-H460
K562 = tested on: K562
SN12C = tested on: SN12C
A498 = tested on: A498
SNB-78 = tested on: SNB-78
Malme-3M = tested on: Malme-3M

Compound	GI50 (U-251)	GI50 (NCI/ADR-RES)	GI50 (CCRF-CEM)	GI50 (SK-MEL-5)	GI50 (UACC-62)	GI50 (HL-60)	GI50 (SK-OV-3)	GI50 (RPMI-8226)	GI50 (DU-145)	GI50 (OVCAR-3)	GI50 (SF-268)	GI50 (SR)	GI50 (OVCAR-5)	GI50 (TK-10)	GI50 (NCI-H460)	GI50 (K562)	GI50 (SN12C)	GI50 (A498)	GI50 (SNB-78)	GI50 (Malme-3M)
CCOC(=O)C(NC(=O)CC)(Nc1ccccc1OC)C(F)(F)F (configuration not stated)	> 100 µM (inactive)	> 100 µM (inactive)	> 100 µM (inactive)	> 100 µM (inactive)	> 100 µM (inactive)	> 100 µM (inactive)	> 100 µM (inactive)	> 100 µM (inactive)	> 100 µM (inactive)	> 100 µM (inactive)	> 100 µM (inactive)	> 100 µM (inactive)	> 100 µM (inactive)	> 100 µM (inactive)	> 100 µM (inactive)	> 100 µM (inactive)	> 100 µM (inactive)	–	–	–
Cc1c2c(cc3c1[nH]c1ccccc13)C=NCC2	13.4 µM (inactive)	12.2 µM (inactive)	7.48 µM (inactive)	6.41 µM (inactive)	8.49 µM (inactive)	5.78 µM (inactive)	46.8 µM (inactive)	10.5 µM (inactive)	–	1.26 µM (inactive)	16.8 µM (inactive)	–	22 µM (inactive)	–	8.53 µM (inactive)	6.17 µM (inactive)	19 µM (inactive)	10.5 µM (inactive)	19.7 µM (inactive)	6.61 µM (inactive)
CCOC(=O)/C=C(\C)c1ccc(OC)cc1	> 100 µM (inactive)	–	–	> 100 µM (inactive)	–	> 100 µM (inactive)	–	> 100 µM (inactive)	–	–	> 100 µM (inactive)	> 100 µM (inactive)	> 100 µM (inactive)	> 100 µM (inactive)	> 100 µM (inactive)	–	> 100 µM (inactive)	89.3 µM (inactive)	> 100 µM (inactive)	> 100 µM (inactive)
CC(=O)NC1=C[C@@H]([C@H]2COC(C)(C)O2)OC1=O	> 100 µM (inactive)	> 100 µM (inactive)	> 100 µM (inactive)	> 100 µM (inactive)	> 100 µM (inactive)	> 100 µM (inactive)	> 100 µM (inactive)	> 100 µM (inactive)	–	> 100 µM (inactive)	> 100 µM (inactive)	–	> 100 µM (inactive)	–	> 100 µM (inactive)	> 100 µM (inactive)	> 100 µM (inactive)	> 100 µM (inactive)	> 100 µM (inactive)	> 100 µM (inactive)
OCCNCN(CNCCO)c1nc(N(CNCCO)CNCCO)nc(N(CNCCO)CNCCO)n1	0.0745 µM (active)	–	0.04 µM (active)	–	–	–	0.0861 µM (active)	–	–	0.0908 µM (active)	0.0578 µM (active)	–	0.146 µM (active)	0.133 µM (active)	0.118 µM (active)	0.04 µM (active)	0.131 µM (active)	0.0764 µM (active)	0.0959 µM (active)	0.04 µM (active)
CCCCOc1ccc(OCCCCCCCCCC[N+](C)(C)C)cc1	1.91 µM (inactive)	58.9 µM (inactive)	1.28 µM (inactive)	1.91 µM (inactive)	4.06 µM (inactive)	0.39 µM (active)	2.89 µM (inactive)	0.481 µM (active)	–	2.1 µM (inactive)	3.13 µM (inactive)	–	4.65 µM (inactive)	–	2.54 µM (inactive)	2.74 µM (inactive)	3.62 µM (inactive)	9.93 µM (inactive)	2.38 µM (inactive)	4.37 µM (inactive)
CCOC(=O)c1csc(NC(=O)CCN(CC)CC)n1	81.3 µM (inactive)	40.2 µM (inactive)	27.5 µM (inactive)	45.8 µM (inactive)	45 µM (inactive)	39.1 µM (inactive)	> 100 µM (inactive)	0.0817 µM (active)	40.2 µM (inactive)	26.8 µM (inactive)	–	21.9 µM (inactive)	> 100 µM (inactive)	23.8 µM (inactive)	> 100 µM (inactive)	71 µM (inactive)	–	91.2 µM (inactive)	–	–
CCOC(=O)/C(C#N)=C1/SC(C(=O)N/N=C/c2ccc(OC)cc2)=C(N)N1c1ccccc1	> 100 µM (inactive)	–	> 100 µM (inactive)	39.4 µM (inactive)	> 100 µM (inactive)	> 100 µM (inactive)	32.4 µM (inactive)	1.71 µM (inactive)	–	> 100 µM (inactive)	97.5 µM (inactive)	> 100 µM (inactive)	> 100 µM (inactive)	> 100 µM (inactive)	72.8 µM (inactive)	0.205 µM (active)	–	–	–	–
COc1ccc(/C=N/N=C(N)N)c(C(=O)O)c1OC	> 100 µM (inactive)	–	> 100 µM (inactive)	> 100 µM (inactive)	> 100 µM (inactive)	> 100 µM (inactive)	> 100 µM (inactive)	> 100 µM (inactive)	–	> 100 µM (inactive)	> 100 µM (inactive)	–	–	> 100 µM (inactive)	> 100 µM (inactive)	> 100 µM (inactive)	> 100 µM (inactive)	> 100 µM (inactive)	> 100 µM (inactive)	–
C/N=c1/ssc(=S)n1C(C)C	–	–	0.673 µM (active)	19.8 µM (inactive)	12 µM (inactive)	2.3 µM (inactive)	–	11.6 µM (inactive)	–	12.4 µM (inactive)	33.8 µM (inactive)	–	–	44.6 µM (inactive)	24.2 µM (inactive)	3.06 µM (inactive)	–	–	–	–
COc1ccc(OC)c(NC(=O)C(=O)C(C(=O)c2ccccc2F)C2OC(=O)c3ccccc32)c1 (configuration not stated)	19.1 µM (inactive)	–	21.8 µM (inactive)	79.1 µM (inactive)	36.4 µM (inactive)	34.8 µM (inactive)	59.4 µM (inactive)	32.4 µM (inactive)	–	–	22.8 µM (inactive)	23.5 µM (inactive)	79.4 µM (inactive)	> 100 µM (inactive)	44.8 µM (inactive)	42.8 µM (inactive)	35.9 µM (inactive)	> 100 µM (inactive)	36.8 µM (inactive)	–
Nc1[nH]cnc2ncnc1-2 [ADENINE]	108 µM (inactive)	46.2 µM (inactive)	–	> 96.6 µM (inactive)	48.1 µM (inactive)	36.6 µM (inactive)	> 250 µM (inactive)	168 µM (inactive)	–	–	–	–	> 250 µM (inactive)	–	–	> 248 µM (inactive)	96.2 µM (inactive)	7.14 µM (inactive)	114 µM (inactive)	–
